{"source": "paper PMC5346970", "about": "(Journal of Medicinal Chemistry, 2017)", "origin": "cited, not measured here", "key": {"[1]": {"settings": "for conjugate level in blood: 3.6 g daily dose, all six subjects"}, "Alzheimer’s disease": {"test_system": "Alzheimer’s disease", "settings": "for mean plasma level three hours post-treatment / mean baseline plasma level at 24 weeks: LC/MS/MS; for mean plasma level three hours post-treatment: 24 weeks"}, "[2]": {"test_system": "advanced pancreatic cancer", "settings": "8 g/day oral, steady state on day 3"}, "[3]": {"test_system": "amyloid-β (Aβ) fibril formation", "settings": "ThT assay"}, "[4]": {"test_system": "murine macrophage cells, J774.1", "settings": "read-out: cytotoxicity IC50; murine macrophage cell line"}, "CB2": {"test_system": "CB2", "settings": "repeated experiments after retraction"}, "mutant CFTR (ΔF508 mice)": {"test_system": "mutant CFTR (ΔF508 mice)", "settings": "45 mg kg^–1 day^–1 oral; not reproduced by independent lab (ref 139)"}, "[5]": {"settings": "at 2 h, one individual, single 12 g oral dose"}, "Aβ": {"test_system": "Aβ", "settings": "transmission electron microscopy, in vitro"}, "[6]": {"settings": "mice fed diets poor in iron"}, "GSK-3β": {"test_system": "GSK-3β", "settings": "no DTT, 30–90 min incubation"}, "[7]": {"test_system": "cannabinoid receptor 1 (CB1)", "settings": "repeated experiments after retraction"}, "HAT Gcn5": {"test_system": "HAT Gcn5", "settings": "in vitro"}, "[8]": {"test_system": "histone methyltransferase G9a", "settings": "counterscreen"}, "[9]": {"settings": "synthetic 1, rats"}, "[10]": {"settings": "depending on solvent and method"}, "[11]": {"test_system": "SERCA (sarcoplasmic/endoplasmic reticulum calcium) pump", "settings": "previously reported"}, "[12]": {"settings": "room temperature, neutral pH"}}, "note": "Values joined by “and” are separate entries in the source; they are usually repeats but may differ in a detail not shown here. Identical values can stand only once. Like-named read-outs stand apart in the source and are kept apart here.", "data": [{"compound": "O=S(=O)(O)O", "note": "[Sulfate]", "values": [{"measurement": "conjugate level in blood", "setting": "[1]", "result": "8.9 ± 0.7", "unit": "nmol/L"}]}, {"compound": "COc1cc(CCC(=O)CC(=O)CCc2ccc(OC3OC(C(=O)O)C(O)C(O)C3O)c(OC)c2)ccc1O", "note": "(centres unmarked) [glucuronidated tetrahydrocurcumin]", "values": [{"measurement": "mean plasma level three hours post-treatment", "setting": "Alzheimer’s disease", "result": "298.2 ± 140.0", "unit": "ng/mL"}]}, {"compound": "COc1cc(/C=C/C(=O)CC(=O)/C=C/c2ccc(O[C@@H]3O[C@H](C(=O)O)[C@@H](O)[C@H](O)[C@H]3O)c(OC)c2)ccc1O", "note": "[glucuronidated 1]", "values": [{"measurement": "mean plasma level three hours post-treatment", "setting": "Alzheimer’s disease", "result": "96.05 ± 26", "unit": "ng/mL"}, {"measurement": "conjugate level in blood", "setting": "[1]", "result": "15.8 ± 0.9", "unit": "nmol/L"}]}, {"compound": "COc1cc(CCC(=O)CC(=O)CCc2ccc(O)c(OC)c2)ccc1O", "note": "[tetrahydrocurcumin]", "values": [{"measurement": "mean baseline plasma level at 24 weeks", "setting": "Alzheimer’s disease", "result": "6.86 ± 1.69", "unit": "ng/mL"}, {"measurement": "mean plasma level three hours post-treatment", "setting": "Alzheimer’s disease", "result": "3.73 ± 2.0", "unit": "ng/mL"}]}, {"compound": "(1E,6E)-1,7-bis(4-hydroxy-3-methoxyphenyl)-1,6-heptadiene-3,5-dione [Compound 1]", "values": [{"measurement": "t1/2 for loss of parent compound", "setting": "pH 7.5, rt, aqueous buffer", "result": "approximately 20 min"}, {"measurement": "reduction in parent material", "setting": "samples prepared in clear versus amber glass", "result": 5, "unit": "%"}, {"measurement": "compound degradation", "setting": "solvolysis in aqueous alkaline buffer, within 30 min", "result": 90, "unit": "%"}, {"measurement": "plasma level", "setting": "[2]", "result": "22 to 41", "unit": "ng/mL"}, {"measurement": "IC50", "setting": "[3]", "result": "1 to 64", "unit": "µM"}, {"measurement": "activity in FP secondary screen", "setting": "tau fibril formation", "result": "inactive"}, {"measurement": "IC50", "setting": "malate dehydrogenase; with Triton X-100", "result": "> 30", "unit": "µM"}, {"measurement": "IC50", "setting": "malate dehydrogenase; without Triton X-100", "result": 9, "unit": "µM"}, {"measurement": "IC50", "setting": "[4]", "result": 31, "unit": "µM"}, {"measurement": "inhibition of CB2", "setting": "CB2", "result": "low micromolar inhibitor"}, {"measurement": "Papp", "setting": "Caco-2 model system", "result": "3.18 × 10^–6 ± 1.08 × 10^–6 cm/s"}, {"measurement": "effect on phenotypic deficits", "setting": "mutant CFTR (ΔF508 mice)", "result": "ameliorated phenotypic deficits"}, {"measurement": "peak serum level", "setting": "[5]", "result": "57.6 ng/mL and 156 nmol/L"}, {"measurement": "effect on aggregation of Aβ", "setting": "Aβ", "result": "does not affect the aggregation"}, {"measurement": "IC50", "setting": "HIV-2 protease; with Triton X-100", "result": "> 100", "unit": "µM"}, {"measurement": "IC50", "setting": "HIV-2 protease; without Triton X-100", "result": 9, "unit": "µM"}, {"measurement": "iron status", "setting": "[6]", "result": "inducing a state of overt iron deficiency"}, {"measurement": "activity versus PCAF", "setting": "HAT PCAF; counterscreen", "result": "failed to show any activity"}, {"measurement": "inhibition of PCAF", "setting": "HAT PCAF; in vitro", "result": "failed to inhibit"}, {"measurement": "IC50", "setting": "GSK-3β", "result": 0.066, "unit": "µM"}, {"measurement": "inhibition of CB1", "setting": "[7]", "result": "low micromolar inhibitor"}, {"measurement": "inhibition of Gcn5", "setting": "HAT Gcn5", "result": "failed to inhibit"}, {"measurement": "mean baseline plasma level at 24 weeks", "setting": "Alzheimer’s disease", "result": "2.67 ± 1.69", "unit": "ng/mL"}, {"measurement": "mean plasma level three hours post-treatment", "setting": "Alzheimer’s disease", "result": "7.76 ± 3.23", "unit": "ng/mL"}, {"measurement": "plasma level by HPLC", "setting": "Alzheimer’s disease; one sample, 4 h after a 4 g dose, below assay LLOD", "result": 6, "unit": "ng/mL"}, {"measurement": "activity versus G9a", "setting": "[8]", "result": "failed to show any activity"}, {"measurement": "level in blood as reported", "setting": "[1]; 3.6 g daily, 1 h time point", "result": 0.6, "unit": "nM"}, {"measurement": "oral bioavailability", "setting": "[9]", "result": "less than 1%"}, {"measurement": "pKa, first phenolic proton", "setting": "[10]", "result": "8.5–10.4"}, {"measurement": "pKa, second phenolic proton", "setting": "[10]", "result": "9.5–10.7"}, {"measurement": "IC50", "setting": "AmpC β-lactamase; with Triton X-100", "result": "> 30", "unit": "µM"}, {"measurement": "IC50", "setting": "AmpC β-lactamase; without Triton X-100", "result": 12, "unit": "µM"}, {"measurement": "in vitro activity", "setting": "[11]", "result": "5 to 15", "unit": "µM"}, {"measurement": "solubility in water", "setting": "[12]", "result": "practically insoluble"}, {"measurement": "solubility in water (estimate)", "setting": "[12]; confounded by aggregation", "result": "1 to 10", "unit": "µg/mL"}]}]}
